The values that follow come from patent US4959368A, “Therapeutic agent for neurological diseases” (Mitsui Petrochemical Industries Ltd., priority 1986, dated 1990).

Each structure is given as a SMILES string.

Assay type in all cases: cell-based
For assay [1], the system named is human neuroblastoma cell line GOTO. Kind of assay: Activity on cell line GOTO (simple method). As to conditions: Table 2 GOTO Run No. 1; 10 μg/ml; control 8.4. The protocol:
The biological activities in vitro of the compounds of formula (I) on cells of the nervous system were tested. The cells tested were human neuroblastoma cell line GOTO [see Sekiguchi, M., Oota, T., Sakakibara, K., Inui, N. & Fujii, G., Japan. J. Exp. Med., 49, 67-83 (1979)], and neuroblastoma cell line NB-1 [see Miyake, S., Shimo, Y., Kitamura, T., Nojyo, Y., Nakamura, T., Imkashuku, S. and Abe, T., The Autonomic Nervous System, 10, 115-120 (1973)], and mouse neuroblastoma cell line neuro-2a (Dainippon Pharmaceutical Co., Ltd.) which have been established as the cells of the nervous system. The above neuve cells were grown in an incubator at 37° C. in the presence of 5% carbon dioxide gas exponentially, and then cultivated for a certain period of time together with the compounds of formula (I).
A culture medium [composed of 45% of RPMI 1640 medium, 45% modified Eagle's medium (MEM) and 10% of fetal calf serum (FCS) and containing penicillin G sodium (100 units/ml) and streptomycin sulfate (100 microgram/ml)] containing neurobalstoma cell line GOTO in the logarithmic growth period was poured in an amount of 2 ml each into polystyrene dishes (35 mm; made by Corning Co.) so that the cell concentration was 2 to 6×10^4 cells per dish, and the cells were cultured for 1 to 2 days in a carbon dioxide gas incubator containing 5% of carbon dioxide gas in air at 37° C. Then, the culture fluid was removed, and 2 ml of a fresh serum-free culture fluid (consisting of 50% of RPMI medium and 50% of MEM medium and containing penicillin G sodium and streptomycin sulfate in the same amounts as above) was added. At the same time, a presterilized PBS solution (phosphate buffered saline) of each of the test compounds in various concentrations was added to each of the dishes. After culturing for 24 hours, the number of living cells was counted. Furthermore, the culture was photographed, and from the photos, the number and length of neurites per cell were measured. The numer of living cells was counted for 3 to 6 dishes by resistance to staining with erythrosine dye. The number and length of the neurites were measured with regard to 6 photos (more than 200 cells per photo).
As a simple method of evaluation, the number of cells have neurites with a length equal to, or larger than, the long diameter of the cell was divided by the total number of cells.

For assay [2] the test system is unchanged. Kind of assay: Activity on neuroblastoma cell line GOTO (cell number, number and length of neurites). The note with it: for Number of cells (mean ± S.E.): control 12.30 ± 1.48. In outline: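 GOTO cells were cultured 1–2 days at 37 °C, 5% CO2, then switched to serum-free RPMI/MEM (1:1) with compounds in PBS at various concentrations for 24 h. Living cells were counted by erythrosine exclusion (3–6 dishes); neurite number and length per cell were measured from photographs.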

Assay [3] has as its system mouse neuroblastoma cell line neuro-2a. Kind of assay: Activity on cell line neuro-2a (simple method). The gist of the method: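 Cells (2–6×10^4 per dish) grown 1–2 days at 37 °C, then switched to serum-free RPMI/MEM with compound in PBS for 24 h. Live cells counted by erythrosine exclusion; score is fraction of cells bearing neurites at least as long as the cell's long diameter, from photos.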

For assay [4] the test system is unchanged. The assay is described as follows: Activity on neuro-2a, cells with outgrown neurites. The gist of the method:
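Mouse neuro-2a cells in DMEM with FCS exposed to compounds for 24 h (up to 6 concentrations, triplicate runs), glutaraldehyde-fixed and methylene blue-stained. Proportion of cells bearing a neurite at least twice the cell's long diameter counted microscopically over ≥200 cells.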

Setting [5] is: Table 1 Run No. 2, 1 μg/ml, control 2.06 ± 0.60.
Where [6] appears, read: Table 1 Run No. 2, 1 μg/ml, control 55.00 ± 37.26.
The mark [7] stands for this setting: Table 1 Run No. 2, 10 μg/ml, control 2.06 ± 0.60.
Where [8] appears, read: Table 1 Run No. 2, 10 μg/ml, control 55.00 ± 37.26.
Where [9] appears, read: Table 2 neuro-2a Run No. 2, 1 μg/ml, control 7.9.
Where [10] appears, read: Table 2 neuro-2a Run No. 2, 10 μg/ml, control 7.9.

Consider `CN1C(=O)Cc2cnc(N3CCNCC3)nc21` [Compound 408], for which the “Average of the proportions” value came out at 25.33% in assay [1], 27.73% in assay [3] (setting [9]) and 25.05% in assay [3] (setting [10]). In addition, the “Number of neurites/cell (mean ± S.D.)” value in assay [2] (setting [5]) was found to be 2.11 ± 0.65 neurites/cell; in assay [2] (setting [7]) it was 2.17 ± 0.66 neurites/cell. In addition, the “Number of cells (mean ± S.E.)” value is on record as 17.52 ± 2.57 × 10^4 /dish in assay [2] (Table 1 Run No. 2, 1 μg/ml) and 13.07 ± 0.80 × 10^4 /dish in assay [2] (Table 1 Run No. 2, 10 μg/ml). In addition, the “Length of neurites (mean ± S.D.)” value was determined as 66.09 ± 36.49 μm/cell in assay [2] (setting [6]) and 69.33 ± 40.68 μm/cell in assay [2] (setting [8]). Further, the “Cells having neurites with a length at least twice the long diameter of cell/total number of cells” value in assay [4] (Table 3 Run No. 3, 0.01 mM, control 3.9 ± 0.3) came to 7.9 ± 1.8%; in assay [4] (Table 3 Run No. 3, 0.03 mM, control 3.9 ± 0.3) it was 13.0 ± 1.2%; in assay [4] (Table 3 Run No. 3, 0.05 mM, control 3.9 ± 0.3), 23.0 ± 1.7%; in assay [4] (Table 3 Run No. 3, 0.1 mM, control 3.9 ± 0.3), 51.2 ± 1.5%; in assay [4] (Table 3 Run No. 4, 0.05 mM, control 3.1 ± 0.2), 16.8 ± 2.7%; in assay [4] (Table 3 Run No. 4, 0.1 mM, control 3.1 ± 0.2), 33.5 ± 2.7%. Also, the “Cells having neurites with a length at least twice the long diameter of cell/total number of cells” value in assay [4] (Table 3 Run No. 4, 0.2 mM, control 3.1 ± 0.2) amounted to 44.6 ± 3.1%; in assay [4] (Table 3 Run No. 7, 0.01 mM, control 2.5 ± 0.7), 6.2 ± 0.9%; in assay [4] (Table 3 Run No. 7, 0.1 mM, control 2.5 ± 0.7), 25.0 ± 2.7%; in assay [4] (Table 3 Run No. 7, 0.2 mM, control 2.5 ± 0.7), 44.5 ± 2.9%; in assay [4] (Table 3 first Run No. 5, 0.05 mM, no control given), 12.8 ± 1.8%; in assay [4] (Table 3 first Run No. 5, 0.1 mM, no control given), 23.5 ± 2.5%.

Consider `CN1Cc2nc(N3CCNCC3)ncc2C1=O` [Compound 604], for which the “Average of the proportions” value is given as 21.30% in assay [1]; 19.86% in assay [3] (setting [9]); 17.20% in assay [3] (setting [10]); 10.7% in assay [3] (Table 2 neuro-2a Run No. 3, 0.01 μg/ml, control 2.0); 16.50% in assay [3] (Table 2 neuro-2a Run No. 3, 0.1 μg/ml, control 2.0); 11.25% in assay [3] (Table 2 neuro-2a Run No. 3, 1 μg/ml, control 2.0). Besides, the “Length of neurites (mean ± S.D.)” value in assay [2] (Table 1, Run No. 6 by footnote, 1 μg/ml, control 42.48 ± 19.64, all *P <0.01) is 58.88 ± 22.72 μm/cell; in assay [2] (setting [6]), 76.30 ± 51.49 μm/cell; in assay [2] (setting [8]), 72.06 ± 42.79 μm/cell. Besides, the “Number of neurites/cell (mean ± S.D.)” value in assay [2] (Table 1, second control group (Run No. 6 by footnote), 1 μg/ml, control 1.79 ± 0.80) was 2.23 ± 0.81 neurites/cell; in assay [2] (setting [5]) it was 2.29 ± 0.77 neurites/cell; in assay [2] (setting [7]) it was 2.27 ± 0.62 neurites/cell. In addition, the “Number of cells (mean ± S.E.)” value in assay [2] (Table 1 Run No. 2, 1 μg/ml) is 14.41 ± 2.98 × 10^4 /dish; in assay [2] (Table 1 Run No. 2, 10 μg/ml), 11.85 ± 1.36 × 10^4 /dish. Further, the “Cells having neurites with a length at least twice the long diameter of cell/total number of cells” value worked out at 8.6 ± 0.9% in assay [4] (Table 3 Run No. 3, 0.3 mM, control 3.9 ± 0.3) and 10.7 ± 1.3% in assay [4] (Table 3 Run No. 3, 1 mM, control 3.9 ± 0.3).
